Experimental findings from PubChem BioAssay AID434957 (The Scripps Research Institute Molecular Screening Center, 2010) are described below.

Active and inactive are the calls of the source.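 Rule for the calls: active = IC50, the dose halving KLF5 reporter signal, at most 10 µM; inactive = IC50 above 10 µM or none.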

The test system of the test is DLD-1 KLF5 promoter luciferase reporter, luminescence. Nature of the test: KLF5 luciferase suppression by analogs – luminescence, DLD-1 cells, round 1, SAR follow-up (AID 434957).

On to `CC(C)(C)c1ccc(-c2noc(CCC(=O)Nc3ccncc3)n2)cc1`, for which the IC50 was 0.107 µM.

On to `COc1ccc(-n2nc3ccc(NC(=O)C(C)(C)C)cc3n2)cc1`, for which the IC50 is > 39.8 µM (inactive).

Take `Nc1cc2nn(-c3ccccc3)nc2cc1Cl`: the IC50 is > 39.8 µM (inactive).

On to `CC(C)c1ccc2nc(Nc3nc4ccc(F)cc4s3)sc2c1`, for which the IC50 is > 39.8 µM (inactive).

For `CC(NC(=O)c1ccccc1)c1nc(-c2ccc(C(C)(C)C)cc2)no1` (stereo unspecified), the IC50 is > 39.8 µM (inactive).

In the case of `CC(C)(C)C(=O)Nc1ccc2nn(-c3ccccc3)nc2c1`, the IC50 was 3.18 µM.

For the molecule `COc1ccc2nc(Nc3nc4ccc(F)cc4s3)sc2c1`, the IC50 was > 39.8 µM (inactive).

On to `Cc1ccc(OCC(=O)Nc2ccc3nn(-c4cccc(C(F)(F)F)c4)nc3c2)cc1C`, for which the IC50 was > 39.8 µM (inactive).

Turning to `CC(C)(C)c1ccc(-c2noc(CCC(=O)Nc3ccccn3)n2)cc1`, the IC50 was 0.159 µM.

Regarding `CC(C)(C)c1ccc(-c2coc(CCC(=O)Nc3ccccn3)n2)cc1`, the IC50 is 19.4 µM (inactive).

Take `CC1(C)CC(=O)c2sc(NC(=O)c3ccc4ncsc4c3)nc2C1`: the IC50 was > 39.8 µM (inactive).

Take `CC(=O)c1sc(NC(=O)c2ccc3ncsc3c2)nc1C`: the IC50 was > 39.8 µM (inactive).

In the case of `Cc1ccc(-n2nc3ccc(NC(=O)COc4ccc(C)c(C)c4)cc3n2)cc1`, the IC50 was > 39.8 µM (inactive).

`CCNC(=O)c1ccc2nc(Nc3nc4ccc(F)cc4s3)sc2c1`: the IC50 was 0.0562 µM.

Regarding `Cc1ccc(-n2nc3cc(Cl)c(NC(=O)c4cccnc4)cc3n2)cc1`, the IC50 is > 39.8 µM (inactive).

As to `O=C(Cc1ccccc1)Nc1cc2nn(-c3ccccc3)nc2cc1Cl`, the IC50 was 7.96 µM.

Turning to `CCOc1ccc2nc(Nc3nc4ccc(F)cc4s3)sc2c1`, the IC50 was > 39.8 µM (inactive).

With `Cc1nc(NC(=O)c2ccc3ncsc3c2)sc1C(=O)N(C)C`, the IC50 was > 39.8 µM (inactive).

In the case of `CC(=O)Nc1ccc2nc(Nc3nc4ccc(F)cc4s3)sc2c1`, the IC50 is > 39.8 µM (inactive).

For `O=C(COc1ccccc1)Nc1ccc2nn(-c3cccc(Cl)c3)nc2c1`, the IC50 was > 39.8 µM (inactive).

`CC(C)(C)c1ccc(-c2noc(CCC(=O)NCc3ccccc3)n2)cc1`: the IC50 was 3.57 µM.

Turning to `CC(C)(C)c1ccc(-c2noc(CCCC(=O)Nc3ccccc3Cl)n2)cc1`, the IC50 is 0.806 µM.

On to `CN(C)C(=O)c1ccc2nc(Nc3nc4ccc(F)cc4s3)sc2c1`, for which the IC50 was 0.0131 µM.

Take `COc1ccc(-n2nc3cc(C)c(NC(=O)C(C)C)cc3n2)cc1`: the IC50 was > 39.8 µM (inactive).

With `O=C(Nc1cc2nn(-c3ccccc3)nc2cc1Cl)C1COc2ccccc2C1` (stereo unspecified), the IC50 was > 39.8 µM (inactive).

As to `CC(C)(C)c1ccc(-c2noc(CCC(=O)Nc3ccccc3)n2)cc1`, the IC50 is 0.116 µM.

Turning to `CS(=O)(=O)c1ccc2nc(Nc3nc4ccc(F)cc4s3)sc2c1`, the IC50 is > 39.8 µM (inactive).

For `CCOc1ccc(NC(=O)CCc2nc(-c3ccc(C(C)(C)C)cc3)no2)cc1`, the IC50 is 0.285 µM.

Turning to `Cc1cccc(NC(=O)CCc2nc(-c3ccc(C(C)(C)C)cc3)no2)c1`, the IC50 is 0.229 µM.

As for `CC(C)(C)C(=O)Nc1ccc2nn(-c3ccc(F)cc3)nc2c1`, the IC50 is 4.56 µM.

Turning to `COc1ccc(-n2nc3ccc(NC(=O)C4CCN(S(=O)(=O)c5ccc(Cl)cc5)CC4)cc3n2)cc1`, the IC50 is > 39.8 µM (inactive).

Regarding `CC(C)C(=O)Nc1ccc2nn(-c3ccc(Cl)cc3)nc2c1`, the IC50 is 26.3 µM (inactive).

For `CC(C)(C)c1ccc(-c2noc(CCC(=O)Nc3ccc(N4CCOCC4)nc3)n2)cc1`, the half-maximal inhibitory concentration (IC50) was 0.267 µM.

With `CC(C)(C)c1ccc(-c2noc(CCc3nc4ccccc4[nH]3)n2)cc1`, the IC50 was > 39.8 µM (inactive).

For `CCNC(=O)c1sc(NC(=O)c2ccc3ncsc3c2)nc1C`, the IC50 was > 39.8 µM (inactive).

Regarding `CC(=O)c1sc(NC(=O)c2ccc3ncsc3c2)nc1-c1ccccc1`, the IC50 was > 39.8 µM (inactive).
